The test system of series [1] is microorganisms.
The test system of series [2] is Daphnia magna.

Take “Starch Maleate Half Ester, Crosslinked with 0.08 Eq. Triglycol Dichloride [Example 21]”: the toxicity for microorganisms entry in series [1] is “no toxicity”. In series [2], the “toxic product destroying the aquatic flora” value is “no toxic product have been detected”.

For the origin of these results see patent publication US20030027787A1, “Crosslinked polysaccharide, obtained by crosslinking with substituted polyethylene glycol, as superabsorbant” (GROUP LYSAC INC./LYSAC GROUP INC., priority 2000, published 2003).
